Patent US20080207708A1, “Oxazole and Thiazole Compounds and Their Use in the Treatment of Pge2 Mediated Disorders” (GLAXO GROUP LIMITED, priority 2005, published 2008)
Structures can show the parent of a compound that is named as a salt.

What follows are compounds tested against T1, EP1 receptors (Homo sapiens, UniProt P34995) (assay: Binding assay for the human prostanoid EP1 receptor (competition with [3H]-PGE2)). Settings: [3H]-PGE2 competition; averages of a number of experiments; read-out: pIC50 value, binding assay for the human prostanoid EP1 receptor (converted).
T1 sequence (P34995 1-402): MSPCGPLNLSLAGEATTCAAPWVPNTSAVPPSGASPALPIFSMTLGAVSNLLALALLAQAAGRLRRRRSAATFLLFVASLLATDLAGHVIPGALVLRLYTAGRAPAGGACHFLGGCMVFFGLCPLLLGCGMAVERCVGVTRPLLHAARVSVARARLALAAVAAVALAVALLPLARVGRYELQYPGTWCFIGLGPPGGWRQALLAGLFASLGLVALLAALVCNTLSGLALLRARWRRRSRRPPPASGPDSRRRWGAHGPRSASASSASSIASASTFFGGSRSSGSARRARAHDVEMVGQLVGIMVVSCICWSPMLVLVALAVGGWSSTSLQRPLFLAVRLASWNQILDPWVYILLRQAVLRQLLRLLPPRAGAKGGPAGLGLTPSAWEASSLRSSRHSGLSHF
Set-up: expressed in transfected cells; host or cells: CHO-K1 cells, membrane fraction
Method: Competition assay using [^3H]-PGE2.
Compound potencies are determined using a radioligand binding assay. In this assay compound potencies are determined from their ability to compete with tritiated prostaglandin E2 ([^3H]-PGE2) for binding to the human EP1 receptor.
This assay utilises Chinese hamster ovary-K1 (CHO-K1) cells into which a stable vector containing the EP1 cDNA has previously been transfected. Cells are cultured in suitable flasks containing culture medium such as DMEM:F-12 supplemented with 10% v/v foetal calf serum, 2 mM L-glutamine, 0.25 mg/ml geneticin, 10 μg/ml puromycin and 10 μM indomethacin.
Cells are detached from the culture flasks by incubation in calcium and magnesium free phosphate buffered saline containing 1 mM disodium ethylenediaminetetraacetic acid (Na2EDTA) and 10 μM indomethacin for 5 min. The cells are isolated by centrifugation at 250×g for 5mins and suspended in an ice cold buffer such as 50 mM Tris, 1 mM Na2EDTA, 140 mM NaCl, 10 μM indomethacin (pH 7.4). The cells are homogenised using a Polytron tissue disrupter (2×10 s burst at full setting), centrifuged at 48,000×g for 20mins and the pellet containing the membrane fraction is washed (optional) three times by suspension and centrifugation at 48,000×g for 20mins. The final membrane pellet is suspended in an assay buffer such as 10 mM 2-[N-morpholino]ethanesulphonic acid, 1 mM Na2EDTA, 10 mM MgCl2 (pH 6). Aliquots are frozen at […] until required.
For the binding assay the cell membranes, competing compounds and [^3H]-PGE2 (3 nM final assay concentration) are incubated in a final volume of 100 μl for 30 min at 30° C. All reagents are prepared in assay buffer. Reactions are terminated by rapid vacuum filtration over GF/B filters using a Brandell cell harvester. The filters are washed with ice cold assay buffer, dried and the radioactivity retained on the filters is measured by liquid scintillation counting in Packard TopCount scintillation counter.
The data are analysed using non linear curve fitting techniques to determine the concentration of compound producing 50% inhibition of specific binding (IC50).

SMILES | IC50
CC(C)COc1ccc(Cl)cc1Cc1nc(-c2nnc[nH]2)cs1 [Example 157, 3-[2-({5-Chloro-2-[(2-methyl-propyl)oxy]-phenyl}methyl)-1,3-thiazol-4-yl]-1H-1,2,4-triazole] | ≤ 1000 nM
O=C(O)c1csc(Cc2cc(Br)ccc2OCc2cc(F)c(F)cc2F)n1 [Example 58, Sodium 2-[(5-bromo-2-{[(2,4,5-trifluorophenyl)methyl]oxy}phenyl)methyl]-1,3-thiazole-4-carboxylate] | ≤ 31.6 nM
NC(=O)c1nc(Cc2cc(Cl)ccc2OCc2ccccc2F)cs1 [Example 2, 4-[(5-chloro-2-{[(2-fluorophenyl)methyl]oxy}phenyl)methyl]-1,3-thiazole-2-carboxamide] | ≤ 1000 nM
NC(=O)c1csc(Cc2cc(Cl)ccc2OCc2ccccc2)n1 [Example 90, 2-({5-Chloro-2-[(phenylmethyl)oxy]phenyl}methyl)-1,3-thiazole-4-carboxamide] | ≤ 1000 nM
O=C(O)c1csc(Cc2cc(Cl)ccc2OCc2ccc(F)cc2)n1 [Example 12, 2-[(5-chloro-2-{[(4-fluorophenyl)methyl]oxy}phenyl)methyl]-1,3-thiazole-4-carboxylicacid] | ≤ 31.6 nM
O=C(O)c1csc(Cc2cc(C(F)(F)F)ccc2OCc2ccc(F)cc2Cl)n1 [Example 33, Sodium 2-{[2-{[(2-chloro-4-fluorophenyl)methyl]oxy}-5-(trifluoromethyl)phenyl]methyl}-1,3-thiazole-4-carboxylate] | ≤ 31.6 nM
NC(=O)c1nc(Cc2cc(Cl)ccc2OCc2c(F)ccc(F)c2F)cs1 [Example 7, 4-[(5-chloro-2-{[(2,3,6-trifluorophenyl)methyl]-oxy}phenyl)methyl]-1,3-thiazole-2-carboxamide] | > 1000 nM
CC(C)CCOc1ccc(C(F)(F)F)cc1Cc1nc(C(=O)O)cs1 [Example 41, Sodium 2-{[2-[(3-methylbutyl)oxy]-5-(trifluoromethyl)phenyl]methyl}-1,3-thiazole-4-carboxylate] | ≤ 31.6 nM
CCCOc1ccc(C(F)(F)F)cc1Cc1nc(C(=O)O)cs1 [Example 37, Sodium 2-{[2-(propyloxy)-5-(trifluoromethyl)phenyl]methyl}-1,3-thiazole-4-carboxylate] | ≤ 31.6 nM
O=C(O)Cc1csc(-c2cc(Cl)ccc2OCc2ccccc2)n1 [Example 73, Sodium [2-{5-chloro-2-[(phenylmethyl)oxy]phenyl}-1,3-thiazol-4-yl)acetate] | ≤ 31.6 nM
O=C(O)c1nc(Cc2cc(Cl)ccc2OCc2c(F)cc(F)cc2F)cs1 [Example 85, Sodium 4-[(5-chloro-2-{[(2,4,6-trifluorophenyl)methyl]-oxy}phenyl)methyl]-1,3-thiazole-2-carboxylate] | ≤ 31.6 nM
O=C(O)c1csc(Cc2cc(C(F)(F)F)ccc2OCc2ccc(F)cc2F)n1 [Example 26, Sodium 2-{[2-{[(2,4-difluorophenyl)methyl]oxy}-5-(trifluoromethyl)phenyl]methyl}-1,3-thiazole-4-carboxylate] | ≤ 31.6 nM
O=C(O)c1csc(Cc2cc(C(F)(F)F)ccc2OCC2CCCC2)n1 [Example 45, Sodium 2-{[2-[(cyclopentylmethyl)oxy]-5-(trifluoromethyl)phenyl]methyl}-1,3-thiazole-4-carboxylate] | ≤ 31.6 nM
O=C(O)c1csc(Cc2cc(C(F)(F)F)ccc2OCc2cc(F)c(F)cc2F)n1 [Example 36, Sodium 2-[(5-(trifluoromethyl)-2-{[(2,4,5-trifluorphenyl)methyl]oxy}phenyl)methyl]-1,3-thiazole-4-carboxylate] | ≤ 31.6 nM
O=C(O)Cc1csc(-c2cc(Cl)ccc2OCc2ccc(F)cc2)n1 [Example 72, Sodium [2-(5-chloro-2-{[(4-fluorophenyl)methyl]oxy}phenyl)-1,3-thiazol-4-yl]acetate] | ≤ 1000 nM
O=C1CN(Cc2ccc(NC(=O)c3csc(Cc4cc(Cl)ccc4OCc4ccccc4)n3)cc2)CCN1 [Example 122, 2-({5-Chloro-2-[(phenylmethyl)oxy]phenyl}-methyl)-N-{4-[(3-oxo-1-piperazinyl)methyl]phenyl}-1,3-thiazole-4-carboxamidehydrochloride] | ≤ 31.6 nM

SMILES | IC50
CC(C)COc1ccc(Cl)cc1Cc1nc(-c2nc3cc(N4CCN(C)CC4)ccc3[nH]2)co1 [Example 163, 2-[2-({5-Chloro-2-[(2-methylpropyl)oxy]phenyl}methyl)-1,3-oxazol-4-yl]-5-(4-methyl-1-piperazinyl)-1H-benzimidazoletrihydrochloride] | ≤ 31.6 nM
O=C(O)c1csc(Cc2cc(C(F)(F)F)ccc2OCC2CC2)n1 [Example 39, Sodium 2-{[2-[(cyclopropylmethyl)oxy]-5-(trifluoromethyl)phenyl]methyl}-1,3-thiazole-4-carboxylate] | ≤ 31.6 nM
O=C(O)c1csc(Cc2cc(Cl)ccc2OCc2ccc(Cl)cc2Cl)n1 [Example 17, 2-[(5-chloro-2-{[(2,4-dichlorophenyl)methyl]oxy}phenyl)methyl]-1,3-thiazole-4-carboxylicacid] | ≤ 31.6 nM
O=C(O)c1csc(Cc2cc(C(F)(F)F)ccc2OCc2ccccc2F)n1 [Example 29, Sodium 2-{[2-{[(2-fluorophenyl)methyl]oxy}-5-(trifluoromethyl)phenyl]methyl}-1,3-thiazole-4-carboxylate] | ≤ 31.6 nM
CC(C)(C)OC(=O)Nc1coc(Cc2cc(Cl)ccc2OCc2ccccc2)n1 [Example 161, 1,1-Dimethylethyl [2-({5-chloro-2-[(phenylmethyl)oxy]phenyl}methyl)-1,3-oxazol-4-yl]carbamate] | > 1000 nM
O=C(O)c1csc(Cc2cc(Br)ccc2OCc2ccc(Br)cc2)n1 [Example 54, Sodium 2-[(5-bromo-2-{[(4-bromophenyl)methyl]oxy}phenyl)methyl]-1,3-thiazole-4-carboxylate] | ≤ 31.6 nM
O=C(O)c1csc(Cc2cc(Br)ccc2OCc2ccc(Cl)cc2F)n1 [Example 60, Sodium 2-[(5-bromo-2-{[(4-chloro-2-fluorophenyl)methyl]oxy}phenyl)methyl]-1,3-thiazole-4-carboxylate] | ≤ 31.6 nM
O=C(O)c1csc(Cc2cc(Cl)ccc2OCc2c(F)ccc(F)c2F)n1 [Example 19, Sodium 2-[(5-chloro-2-{[(2,3,6-trifluorophenyl)methyl]oxy}phenyl)methyl]-1,3-thiazole-4-carboxylate] | ≤ 1000 nM
O=C(O)c1csc(Cc2cc(C(F)(F)F)ccc2OCc2ccccc2)n1 [Example 24, Sodium 2-{[2-[(phenylmethyl)oxy]-5-(trifluoromethyl)phenyl]methyl}-1,3-thiazole-4-carboxylate] | ≤ 31.6 nM
O=C(O)Cc1csc(-c2cc(Cl)ccc2OCc2ccc(Cl)cc2F)n1 [Example 65, Sodium [2-(5-chloro-2-{[(4-chloro-2-fluorophenyl)methyl]oxy}phenyl)-1,3-thiazol-4-yl]acetate] | ≤ 31.6 nM
O=C(O)c1nc(Cc2cc(Cl)ccc2OCc2ccc(F)cc2F)cs1 [Example 74, Sodium 4-[(5-chloro-2-{[(2,4-difluorophenyl)methyl]oxy}phenyl)methyl]-1,3-thiazole-2-carboxylate] | ≤ 31.6 nM
O=C(O)c1csc(Cc2cc(Cl)ccc2OCC2CCCC2)n1 [Example 27, Sodium 2-({5-chloro-2-[(cyclopentylmethyl)oxy]phenyl}methyl)-1,3-thiazole-4-carboxylate] | ≤ 31.6 nM
O=C(O)c1csc(Cc2cc(Br)ccc2OCc2ccc(F)cc2F)n1 [Example 53, Sodium 2-[(5-bromo-2-{[(2,4-difluorophenyl)methyl]oxy}phenyl)methyl]-1,3-thiazole-4-carboxylate] | ≤ 31.6 nM
O=C(O)c1csc(Cc2cc(Br)ccc2OCc2c(F)cc(F)cc2F)n1 [Example 55, Sodium 2-[(5-bromo-2-{[(2,4,6-trifluorophenyl)methyl]oxy}phenyl)methyl]-1,3-thiazole-4-carboxylate] | ≤ 1000 nM
O=C(O)c1csc(Cc2cc(C(F)(F)F)ccc2OCc2ccc(Cl)cc2F)n1 [Example 32, Sodium 2-{[2-{[(4-chloro-2-fluorophenyl)methyl]oxy}-5-(trifluoromethyl)phenyl]methyl}-1,3-thiazole-4-carboxylate] | ≤ 31.6 nM
